# Results taken from patent publication US20230371510A1, “APPLICATION OF PYRROLE-2-CARB[…] CONTROLLING PLANT ROOT-KNOT NEMATODES” (Yunnan University, priority 2022, published 2023).
# Read-outs that look alike come from different tables or passages of the source.
# Tests used:
# Type in all cases: in vivo
# Meloidogyne incognita = assay: Nematicidal (insecticidal) mortality assay on second instar larvae in well plate; details: for mortality at 12.5 µg/mL: 12.5 μg/ml; for mortality at 12.5 µg/mL / mortality at 25 µg/mL / mortality at 50 µg/mL / mortality at 100 µg/mL / mortality at 200 µg/mL / mortality at 400 µg/mL: 25° C, read-out: Corrected mortality (%); for mortality at 25 µg/mL: 25 μg/ml; for mortality at 50 µg/mL: 50 μg/ml; for mortality at 100 µg/mL: 100 μg/ml; for mortality at 200 µg/mL: 200 μg/ml; for mortality at 400 µg/mL: 400 μg/ml; for LC50: calculated with SPSS 26.0
# Procedure: (§1) 0.5 mg-1.5 mg of pyrrole-2-carboxaldehyde was dissolved in methanol and diluted with sterile distilled water as the test liquid. The dilution concentrations of each liquid medicine were 12.5 μg/ml, 25 μg/ml, 50 μg/ml, 100 μg/ml, 200 μg/ml and 400 μg/ml respectively, and the mass concentration of methanol in each liquid medicine was 5%. Water containing 5% methanol was used as a blank control.
# The infected tomato roots with Meloidogyne incognita were washed with water, and the oocysts of Meloidogyne incognita were picked by a dissecting needle and placed in 0.4 M KCl solution. The oocysts were washed and disinfected in a 5 ml centrifuge tube with 4 ml sterile water (three times), 1 ml sterile penicillin-streptomycin double antibody solution and 3 ml 0.1% NaClO solution, and the supernatant was removed in each step by short centrifugation (8000 rpm for 30 seconds). The washed eggs were incubated in 0.4 M ZnCl2 solution for 48 h, and the second instar larvae were collected in a 1.5 ml centrifuge tube with a pipette and enriched by short centrifugation (5000 rpm for 30 seconds) for subsequent use.
# 200 μl of the above test liquid was added to a 20-well plate with 100-150 live nematodes and placed at 25° C. […] Method for identification of mortality: 1-5 drops of 5% NaCl solution were added to the wells of the treatment plate and observed after 2 minutes; Dead nematodes were stiff and unresponsive to stimulation with a needle, while surviving nematodes were curled or wriggled.
# (§2) The whole experiment was repeated three times with the test liquid without samples as the control, and the average value was taken three times to calculate the corrected mortality.
# (§3) Mortality %=(number of dead nematodes/(number of dead nematodes+number of surviving nematodes))×100%
# (§4) Corrected mortality %=sample mortality−control mortality
# Meloidogyne arenaria = assay: Nematicidal (insecticidal) mortality assay in well plate; details: 48 h
# Procedure: as §1
# (§5) In addition, root-knot nematodes such as Meloidogyne hapla, Meloidogyne javanica and Meloidogyne arenaria were also prepared for testing.
# (§6) 200 μl of the above test liquid was added to a 20-well plate with 100-150 live nematodes and placed at 25° C. Subsequently, the nematodes were examined under an optical microscope at 12 h, 24 h and 48 h, respectively, to calculate the mortality. Method for identification of mortality: 1-5 drops of 5% NaCl solution were added to the wells of the treatment plate and observed after 2 minutes; Dead nematodes were stiff and unresponsive to stimulation with a needle, while surviving nematodes were curled or wriggled.
# as §2, §3, §4
# Meloidogyne hapla = assay: as above; details: 48 h
# Procedure: as §1, §5, §6, §2, §3, §4
# Meloidogyne javanica = assay: as above; details: 48 h
# Procedure: as §1, §5, §6, §2, §3, §4
smiles,measurement,setting,value
O=Cc1ccc[nH]1 [pyrrole-2-carboxaldehyde],mortality at 12.5 µg/mL,Meloidogyne incognita; 12 h,6.99 ± 1.99%
same,mortality at 12.5 µg/mL,Meloidogyne incognita; 24 h,16.6 ± 3.58%
same,mortality at 12.5 µg/mL,Meloidogyne incognita; 36 h,24.9 ± 4.7%
same,mortality at 12.5 µg/mL,Meloidogyne incognita; 48 h,30.3 ± 4.57%
same,mortality at 12.5 µg/mL,Meloidogyne incognita; 72 h,36.1 ± 5.08%
same,mortality at 25 µg/mL,Meloidogyne incognita; 12 h,15.8 ± 0.29%
same,mortality at 25 µg/mL,Meloidogyne incognita; 24 h,26.5 ± 0.53%
same,mortality at 25 µg/mL,Meloidogyne incognita; 36 h,36.3 ± 0.95%
same,mortality at 25 µg/mL,Meloidogyne incognita; 48 h,42.1 ± 1.51%
same,mortality at 25 µg/mL,Meloidogyne incognita; 72 h,48.5 ± 0.78%
same,mortality at 50 µg/mL,Meloidogyne incognita; 12 h,22.4 ± 0.43%
same,mortality at 50 µg/mL,Meloidogyne incognita; 24 h,36.63 ± 0.19%
same,mortality at 50 µg/mL,Meloidogyne incognita; 36 h,53.4 ± 3.16%
same,mortality at 50 µg/mL,Meloidogyne incognita; 48 h,56.6 ± 0.63%
same,mortality at 50 µg/mL,Meloidogyne incognita; 72 h,63.2 ± 0.99%
same,mortality at 100 µg/mL,Meloidogyne incognita; 12 h,24.3 ± 2.78%
same,mortality at 100 µg/mL,Meloidogyne incognita; 24 h,38.7 ± 2%
same,mortality at 100 µg/mL,Meloidogyne incognita; 36 h,62 ± 0.85%
same,mortality at 100 µg/mL,Meloidogyne incognita; 48 h,83.2 ± 1.29%
same,mortality at 100 µg/mL,Meloidogyne incognita; 72 h,88.27 ± 0.56%
same,mortality at 200 µg/mL,Meloidogyne incognita; 12 h,34.2 ± 1.74%
same,mortality at 200 µg/mL,Meloidogyne incognita; 24 h,64.3 ± 0.9%
same,mortality at 200 µg/mL,Meloidogyne incognita; 36 h,79.29 ± 0.7%
same,mortality at 200 µg/mL,Meloidogyne incognita; 48 h,93.3 ± 2.24%
same,mortality at 200 µg/mL,Meloidogyne incognita; 72 h,94.5 ± 1.89%
same,mortality at 400 µg/mL,Meloidogyne incognita; 12 h,47.5 ± 4.35%
same,mortality at 400 µg/mL,Meloidogyne incognita; 24 h,77.42 ± 0.58%
same,mortality at 400 µg/mL,Meloidogyne incognita; 36 h,93.2 ± 0.82%
same,mortality at 400 µg/mL,Meloidogyne incognita; 48 h,98.01 ± 0.2%
same,mortality at 400 µg/mL,Meloidogyne incognita; 72 h,99.26 ± 0.34%
same,LC50,Meloidogyne incognita; 24 h,84.7 µg/mL
same,LC50,Meloidogyne incognita; 48 h,30.7 µg/mL
same,LC50,Meloidogyne arenaria,31 µg/mL
same,LC50,Meloidogyne hapla,31.6 µg/mL
same,LC50,Meloidogyne javanica,33.6 µg/mL
